From patent publication US20250282749A1 (Tango Therapeutics, Inc., priority 2022, published 2025)
Read-outs that look alike come from different tables or passages of the source.

Legend:
Type in all cases: cell-based
[1] = test system: PRMT5 (SDMA) in HAP1 MTAP-deleted cell line; experiment: SDMA in-cell western assay, HAP1 MTAP-deleted cell line; details: for IC50 / IC90: Homo sapiens, SDMA in-cell western, HAP1 MTAP-deleted (MTAP-null) cell line; for Hap1 MTAP intact/deleted ratio: ratio of SDMA in-cell western IC50 in HAP1 MTAP-intact to IC50 in HAP1 MTAP-deleted cell line
From the text: (§1) HAP1 MTAP-intact is a cell line in which endogenous levels of MTAP are expressed, and HAP1 MTAP-deleted is an MTAP-null cell line.

[2] = test system: PRMT5 (SDMA) in HAP1 MTAP-intact cell line; experiment: SDMA in-cell western assay, HAP1 MTAP-intact cell line; details: Homo sapiens, HAP1 MTAP-intact cell line (endogenous MTAP), read-out: Hap 1 MTAP intact IC50
From the text: as §1

[3] = test system: HAP1 MTAP-deleted cell line; experiment: viability assay for the MTAP-deleted cell line

Compound	IC50 ([3]; Homo sapiens)	other results
C[C@H]1CN(C(=O)C(=O)Nc2cnc(N)c(C3CC3)c2)[C@H](c2ccc(F)cc2)CN1C(=O)CC1CC1 [Compound 6]	< 100 nM	IC50 [1]: 5 to 50 nM; IC90 [1]: 75 to 125 nM; Hap1 MTAP intact/deleted ratio [1]: B (an IC50 ratio greater than or equal to 15 fold but lower than 30 fold); IC50 [2]: > 50 nM
CC(C)C(=O)N1C[C@H](c2ccc(F)c(Cl)c2)N(C(=O)C(=O)Nc2cnc(N)c(C3CC3)c2)C[C@H]1C [Compound 24, N-(6-amino-5-cyclopropylpyridin-3-yl)-2-((2S,5R)-2-(3-chloro-4-fluorophenyl)-4-isobutyryl-5-methylpiperazin-1-yl)-2-oxoacetamide]	< 100 nM	IC50 [1]: < 5 nM; IC90 [1]: < 75 nM; Hap1 MTAP intact/deleted ratio [1]: B (an IC50 ratio greater than or equal to 15 fold but lower than 30 fold); IC50 [2]: > 50 nM
CCc1cc(NC(=O)C(=O)N2C[C@@H](C)N(C(=O)C(C)C)C[C@@H]2c2ccc(C)cc2)cnc1N [Compound 71, N-(6-amino-5-ethylpyridin-3-yl)-2-((2S,5R)-4-isobutyryl-5-methyl-2-(p-tolyl)piperazin-1-yl)-2-oxoacetamide]	< 100 nM	IC50 [1]: 5 to 50 nM; IC90 [1]: 75 to 125 nM; Hap1 MTAP intact/deleted ratio [1]: B (an IC50 ratio greater than or equal to 15 fold but lower than 30 fold); IC50 [2]: > 50 nM
C[C@@H]1CN(C(=O)C(=O)Nc2cnc(N)c3c2cnn3C)[C@@H](c2ccccc2)CN1C(=O)C1(C(F)(F)F)CC1 [Compound 166, N-(7-Amino-1-methyl-pyrazolo[3,4-c]pyridin-4-yl)-2-oxo-2-[(2S,5R)-5-methyl-2-phenyl-4-[1-(trifluoromethyl)cyclopropanecarbonyl]piperazin-1-yl]acetamide]	< 100 nM	–
Cc1cc(NC(=O)C(=O)N2C[C@@H](C)N(C(=O)C(C)(C)C)C[C@@H]2c2ccc(F)cc2)cnc1N (stereo in doubt) [Compound 106, N-(6-amino-5-methylpyridin-3-yl)-2-(2-(4-fluorophenyl)-5-methyl-4-pivaloylpiperazin-1-yl)-2-oxoacetamide]	–	IC50 [3]: < 100 nM
C[C@@H]1CN(C(=O)C(=O)Nc2cnc(N)c3cn[nH]c23)[C@@H](c2ccccc2)CN1C(=O)C(C)(C)C [Compound 124, N-(4-amino-1H-pyrazolo[4,3-c]pyridin-7-yl)-2-((2S,5R)-5-methyl-2-phenyl-4-pivaloylpiperazin-1-yl)-2-oxoacetamide]	< 100 nM	–
C[C@@H]1CN(C(=O)C(=O)Nc2cnc(N)c(C3CC3)c2)[C@H](c2ccc(F)cc2)CN1C(=O)CC1CC1 [Compound 136]	> 1000 nM	–
Cc1cc(NC(=O)C(=O)N2C[C@@H](C)N(C(=O)C3(C(F)(F)F)CC3)C[C@@H]2c2ccc(F)cc2)cnc1N [Compound 27]	< 100 nM	–
Cc1cc(NC(=O)C(=O)N2C[C@H](C)N(C(=O)C3(C(F)(F)F)CC3)C[C@H]2c2ccc(F)cc2)cnc1N [Compound 64]	> 1000 nM	–
C[C@H]1CN(C(=O)C(=O)Nc2cnc(N)c(C3CC3)c2)[C@@H](c2ccc(F)cc2)CN1C(=O)CC1CC1 [Compound 56]	> 1000 nM	–
C[C@@H]1CN(C(=O)C(=O)Nc2cnc(N)c(C3CC3)c2)[C@@H](c2ccc3scnc3c2)CN1C(=O)C1(C(F)(F)F)CC1 [Compound 141, N-(6-amino-5-cyclopropyl-3-pyridyl)-2-[(2S,5R)-2-(1,3-benzothiazol-5-yl)-5-methyl-4-[1-(trifluoromethyl)cyclopropanecarbonyl]piperazin-1-yl]-2-oxo-acetamide]	< 100 nM	–
C[C@@H]1CN(C(=O)C(=O)Nc2cncc3[nH]ncc23)C(c2ccc(F)cc2)CN1C(=O)C(C)(C)C (stereo in doubt) [Compound 103, 2-[(2S,5R)-4-(2,2-dimethylpropanoyl)-2-(4-fluorophenyl)-5-methyl-piperazin-1-yl]-2-oxo-N-(1H-pyrazolo[3,4-c]pyridin-4-yl)acetamide]	> 1000 nM	–
Cc1cc(NC(=O)C(=O)N2C[C@@H](C)N(C(=O)C(C)C)C[C@@H]2c2ccc(F)cc2)cnc1N (relative stereo) [Compound 20, N-(6-amino-5-methyl-3-pyridyl)-2-[(2S,5R)-2-(4-fluorophenyl)-5-methyl-4-(2-methylpropanoyl)piperazin-1-yl]-2-oxo-acetamide]	100 to 1000 nM	–
C[C@@H]1CN(C(=O)C(=O)Nc2cnc(N)c3cn[nH]c23)[C@@H](c2ccccc2)CN1C(=O)C1(C)CC1 (racemic) [Compound 161, N-(4-Amino-1H-pyrazolo[4,3-c]pyridin-7-yl)-2-oxo-2-[rac-(2S,5R)-5-methyl-4-(1-methylcyclopropanecarbonyl)-2-phenyl-piperazin-1-yl]acetamide]	< 100 nM	–
CC(C)C(=O)N1C[C@H](c2ccccc2)N(C(=O)C(=O)Nc2cnc(N)c3cn[nH]c23)C[C@H]1C [Compound 50]	< 100 nM	–
Cc1cc(NC(=O)C(=O)N2C[C@@H](C)N(C(=O)C3(C)CC3)C[C@@H]2c2ccc(F)cc2)cnc1N (stereo in doubt) [Compound 108, N-(6-amino-5-methylpyridin-3-yl)-2-(2-(4-fluorophenyl)-5-methyl-4-(1-methylcyclopropanecarbonyl)piperazin-1-yl)-2-oxoacetamide]	–	IC50 [3]: < 100 nM

Compound	IC50 ([3]; Homo sapiens)	other results
CC(C)OC(=O)N1C[C@@H](c2ccc(F)cc2)N(C(=O)C(=O)Nc2cnc(N)c(C3CC3)c2)C[C@H]1C (stereo in doubt) [Compound 82, isopropyl 4-(2-((6-amino-5-cyclopropylpyridin-3-yl)amino)-2-oxoacetyl)-5-(4-fluorophenyl)-2-methylpiperazine-1-carboxylate]	> 1000 nM	–
C[C@@H]1CN(C(=O)C(=O)Nc2cnc(N)c(C3CC3)c2)[C@@H](c2ccccc2)CN1C(=O)C1(C(F)(F)F)CC1 [Compound 51, N-(6-amino-5-cyclopropylpyridin-3-yl)-2-((2S,5R)-5-methyl-2-phenyl-4-(1-(trifluoromethyl)cyclopropanecarbonyl)piperazin-1-yl)-2-oxoacetamide]	< 100 nM	–
Cc1cc(NC(=O)C(=O)N2C[C@@H](C)N(C(=O)C(C)C)C[C@@H]2c2ccc(F)cc2)cnc1N (racemic) [Compound 157, rac-N-(6-amino-5-methylpyridin-3-yl)-2-(2-(4-fluorophenyl)-4-isobutyryl-5-methylpiperazin-1-yl)-2-oxoacetamide]	100 to 1000 nM	–
COc1ncc(NC(=O)C(=O)N2C[C@@H](C)N(C(=O)C3(C)CC3)C[C@@H]2c2ccc(F)cc2)cc1C(N)=O [Compound 102, 5-(2-((2S,5R)-2-(4-fluorophenyl)-5-methyl-4-(1-methylcyclopropanecarbonyl)piperazin-1-yl)-2-oxoacetamido)-2-methoxynicotinamide]	> 1000 nM	–
CC(C)OC(=O)N1C[C@H](c2ccc(F)cc2)N(C(=O)C(=O)Nc2cnc(N)c(C3CC3)c2)C[C@@H]1C (stereo in doubt) [Compound 95, isopropyl 4-(2-((6-amino-5-cyclopropylpyridin-3-yl)amino)-2-oxoacetyl)-5-(4-fluorophenyl)-2-methylpiperazine-1-carboxylate]	> 1000 nM	–
CC(C)C(=O)N1C[C@H](c2ccccc2)N(C(=O)C(=O)Nc2cnc(N)c3c2cnn3C)C[C@H]1C [Compound 165, N-(7-Amino-1-methyl-pyrazolo[3,4-c]pyridin-4-yl)-2-oxo-2-[(2S,5R)-5-methyl-4-(2-methylpropanoyl)-2-phenyl-piperazin-1-yl]acetamide]	< 100 nM	–
Cc1cc(NC(=O)C(=O)N2CC(C)N(C(=O)C(C)C)C[C@@H]2c2ccc(F)c(F)c2)cnc1N (stereo in doubt) [Compound 23, N-(6-amino-5-methylpyridin-3-yl)-2-((2S,5R)-2-(3,4-difluorophenyl)-4-isobutyryl-5-methylpiperazin-1-yl)-2-oxoacetamide]	> 1000 nM	–
CC(C)C(=O)N1C[C@H](c2ccc(F)cc2)N(C(=O)C(=O)Nc2cnc(N)c(C3CC3)c2)C[C@H]1C [Compound 19]	–	Hap1 MTAP intact/deleted ratio [1]: C (an IC50 ratio of less than 15 fold)
Cc1cc(NC(=O)C(=O)N2C[C@@H](C)N(C(=O)C(C)(C)C)C[C@@H]2c2ccc(F)cc2)cnc1N [Compound 3, N-(6-amino-5-methylpyridin-3-yl)-2-((2S,5R)-2-(4-fluorophenyl)-5-methyl-4-pivaloylpiperazin-1-yl)-2-oxoacetamide]	< 100 nM	–
CC(C)CN1C[C@@H](c2ccc(F)cc2)N(C(=O)C(=O)Nc2cnc(N)c(C3CC3)c2)C[C@@H]1C (single isomer, unassigned) [Compound 26]	> 1000 nM	–
CC(C)CN1C[C@H](c2ccc(F)cc2)N(C(=O)C(=O)Nc2cnc(N)c(C3CC3)c2)C[C@@H]1C (single isomer, unassigned) [Compound 48]	> 1000 nM	–
C[C@@H]1CN(C(=O)C(=O)Nc2cnc(N)c3cn[nH]c23)[C@@H](c2ccccc2)CN1C(=O)C1(C(F)(F)F)CC1 [Compound 155]	< 100 nM	–
CC(=O)N1C[C@H](c2ccccc2)N(C(=O)C(=O)Nc2cnc(N)c3c2cnn3C)C[C@H]1C [Compound 168, N-(7-Amino-1-methyl-pyrazolo[3,4-c]pyridin-4-yl)-2-oxo-2-[(2S,5R)-4-acetyl-5-methyl-2-phenyl-piperazin-1-yl]acetamide]	< 100 nM	–
Cc1cc(NC(=O)C(=O)N2C[C@@H](C)N(C(=O)C3(C)CC3)C[C@@H]2c2ccc(F)cc2)cnc1N [Compound 104, N-(6-amino-5-methylpyridin-3-yl)-2-((2S,5R)-2-(4-fluorophenyl)-5-methyl-4-(1-methylcyclopropanecarbonyl)piperazin-1-yl)-2-oxoacetamide]	< 100 nM	–
COc1ncc(NC(=O)C(=O)N2C[C@H](C)N(C(=O)C3(C)CC3)C[C@H]2c2ccc(F)cc2)cc1C(N)=O [Compound 5, 5-(2-((2R,5S)-2-(4-fluorophenyl)-5-methyl-4-(1-methylcyclopropanecarbonyl)piperazin-1-yl)-2-oxoacetamido)-2-methoxynicotinamide]	100 to 1000 nM	–
